In US11077087B2, “Compositions comprising dihydroquercetin for use in methods for treating herpes” (BIONOOX SUISSE SA, priority 2015, dated 2021):

Assays:
Format in all cases: cell-based
[1] = tested on: human mast cells; test: Mast cell degranulation (IgE/anti-IgE), beta-hexosaminidase release
From the text: Pure populations of human mast cells (HMC) are obtained by long-term culture of human normal hematopoietic progenitors (CD34^+ cells) in the continuous presence of Stem Cell Factor (SCF). Sources of these CD34^+ cells are mainly bone marrow, cord blood or peripheral blood. Usually, mononuclear cells from bone marrow and cord blood contain 0.5-1% of CD34^+ cells, whereas peripheral blood contains less than 0.1% of CD34^+ cells. Hematopoietic progenitor cells can be rapidly and efficiently enriched to a purity of about 85-98% using positive selection of magnetically labeled CD34^+ cells. Hematopoietic progenitor cells are then magnetically labeled using MACS CD34 MicroBeads. The magnetically labeled cells are enriched on positive selection columns in the magnetic field. Mononuclear cells from peripheral blood (PBMC), cord blood, or bone marrow may otherwise be obtained by density gradient centrifugation over Ficoll Paque®. Fractionation methods for producing mast cells are described in the art (see for instance Arock et al., 2008, Methods in Molecular biology 415: 241-254). Mast cell degranulation was induced by sequential treatment of mast cell by IgE, then by anti-IgE antibodies. Degranulation was subsequently measured by evaluating the release of beta-hexosaminidase, 1 h after IgE stimulation (see FIG. 4).

[2] = tested on: polymorphonuclear neutrophils; test: Superoxide production by neutrophils, SOD-inhibitable ferricytochrome c reduction assay
Method: (§1) PMA (12-O-tetradecanoyl-phorbol-13-acetate, Consolidated Midland Corp., Brewster, N.Y.) is dissolved at 1 mg/ml in dimethyl sulfoxide. This stock solution maintains full biological activity for several months when stored at […] in the dark. Unless otherwise specified, polymorphonuclear neutrophils (PMN), 10^6/ml in BS-H, are put into plastic centrifuge tubes (Falcon No. 2070, Falcon Labware, Div. of Becton, Dickinson & Co., Oxnard, Calif.) and brought to 37° C. PMA stock solution is added to provide a final concentration of 100 ng/ml of PMA. “Resting” (control) cells are exposed to […] dimethyl sulfoxide. A chemiluminescence (using luminol) method is used to measure Reactive Oxygen species (ROS) production (Dang et al, J Clin Invest. 2006, 116(7):2033-43; Boussetta et al, Blood. 2010, 116(26):5795-802). Superoxide production is measured by the superoxide dismutase (SOD)-inhibitable ferricytochrome c reduction assay.
When activated by opsonized bacteria, zymozan, fMLP (Formyl-Methionyl-Leucyl-Phenylalanine) or PMA (phorbol myristate acetate), neutrophils undergo an oxidative burst resulting in the production of superoxide anion and subsequent hydrogen peroxide. The oxidative burst is mainly mediated by the NADPH oxidase activation, enzyme responsible of the superoxide anion production. […] This effect results either from the direct anion superoxide scavenging or from the inhibition of NADPH oxidase activation.

[3] = tested on: neutrophils; test: ROS production by neutrophils triggered by fMLP, luminol chemiluminescence; conditions: for Integral (total chemiluminescence counts, total ROS production): 22.21 min
Method: Neutrophils (5×10^5) are suspended in 0.5 mL of Hanks balanced salt solution containing 10 μM luminol at 37° C. The cells are then stimulated with 10^−6M fMLP (N-formylmethionyl-leucyl-phenylalanine). Chemiluminescence is recorded with a luminometer (Berthold-Biolumat LB937). Similarly, neutrophils were triggered by fMLP (10^−6 M) in the presence of different concentrations of DHQ (0, 1, 10 and 100 μM) at 37° C. in Hanks buffer containing 10 μM luminol and chemiluminescence was measured by a chemiluminometer. Total chemiluminescence counts during 22.21 min. (integrals) corresponding to total ROS production were determined.

[4] = tested on: NIH-3T3 fibroblasts; test: NIH-3T3 fibroblast proliferation, MTT assay; conditions: increasing DHQ concentrations
Method: The NIH 3T3 cell line was purchased from the ATCC (CRL1658). Cell lines are grown in Dulbecco's Modified Eagles' Medium (DMEM) supplemented with 10% heat inactivated newborn calf serum, 100 UI/mL penicillin and 100 μg/mL streptomycin (all from Gibco BRL) at 37° C. in a humidified 5% CO2 atmosphere. DHQ is dissolved in DMSO. Cells are cultured during 48 hours in the absence or in the presence of various DHQ concentrations. NIH-3T3 fibroblasts are immortalized cells which mimic the inflammatory phenotype assessed by the abundance of actin stress fibers and high contractility.
The effects of DHQ on the growth of NIH-3T3 cells are determined using the 3-(4,5-dimetthylthiazol-2-yl)-2,5-diphenyltetrazolium bromide (MTT) assay. Briefly, cells are plated on 96 well plates at 4,000 cells per well with increasing DHQ concentrations. After 72 hours of incubation with the drug, medium is removed and replaced by complete medium+MTT (10% v/v). After 3 hours of incubation, formazan crystals are dissolved in buffer containing 10% SDS (w/v, Bio-Rad), 50% Dimethyl formamide (Sigma), pH 4.7. Absorbance of reduced formazan is measured at 580 nm. Results are presented in FIG. 5: 100% of MTT reduced is attributed to the measure performed in absence of DHQ.

[5] = tested on: neutrophils; test: ROS production by neutrophils triggered by PMA, luminol chemiluminescence; conditions: for Integral (total chemiluminescence counts, total ROS production) / Peak max / Slope max / T. Slope max / T. half (rise) / T. max (peak): PMA 100 ng/mL; for Integral (total chemiluminescence counts, total ROS production): 22.21 min
Method: as §1
Neutrophils are triggered by PMA (100 ng/mL) in the presence of different concentrations of DHQ (0, 1, 10 and 100 μM) at 37° C. in Hanks buffer containing 10 μM luminol and chemiluminescence is measured by a chemiluminometer. Total chemiluminescence counts during 22.21 min. (integrals) corresponding to total ROS production are determined.

[6] = tested on: polymorphonuclear neutrophils; test: Oxygen consumption of polymorphonuclear neutrophils triggered by PMA and fMLP; conditions: data not shown
[7] = fMLP 10^−6 M, DHQ 1 μM (inferred)
[8] = fMLP 10^−6 M, DHQ 10 μM (inferred)
[9] = fMLP 10^−6 M, DHQ 100 μM (inferred)

O=C1c2c(O)cc(O)cc2OC(c2ccc(O)c(O)c2)C1O (stereo not shown) [DHQ]
inhibition at 10 µM ([1]; Homo sapiens, Mast cell, DHQ 10 μM, beta-hexosaminidase release 1 h after IgE stimulation): ≤ 50% | inhibition at 100 µM ([1]; Homo sapiens, Mast cell, DHQ 100 μM, beta-hexosaminidase release 1 h after IgE stimulation): 80% | inhibitory activity on degranulation compared with reference molecules ([1]; versus kinase inhibitors and chromoglycate): superior to kinase inhibitors and chromoglycate | cytochrome c reduction (anion superoxide production) ([2]; +PMA, DHQ 1 μM): 0.110 dDO/min | cytochrome c reduction (anion superoxide production) ([2]; +PMA, DHQ 10 μM): 0.070 dDO/min | cytochrome c reduction (anion superoxide production) ([2]; +PMA, DHQ 100 μM): 0.021 dDO/min | cytochrome c reduction (anion superoxide production) ([2]; +fMLP, DHQ 1 μM): 0.144 dDO/min | cytochrome c reduction (anion superoxide production) ([2]; +fMLP, DHQ 10 μM): 0.105 dDO/min | cytochrome c reduction (anion superoxide production) ([2]; +fMLP, DHQ 100 μM): 0.040 dDO/min | cytochrome c reduction (anion superoxide production) ([2]; resting neutrophils, DHQ 1 μM): 0.000 dDO/min | cytochrome c reduction (anion superoxide production) ([2]; resting neutrophils, DHQ 10 μM): 0.036 dDO/min | cytochrome c reduction (anion superoxide production) ([2]; resting neutrophils, DHQ 100 μM): 0.086 dDO/min | inhibition at 1 µM ([3]; Neutrophil, neutrophils activated by fMLP, DHQ 1 μM): ~80% | Integral (total chemiluminescence counts, total ROS production) ([3]; fMLP 10^−6 M, DHQ 1 μM (line not labelled, concentration inferred)): 3.838E+08 | Integral (total chemiluminescence counts, total ROS production) ([3]; fMLP 10^−6 M, DHQ 10 μM (line not labelled, concentration inferred)): 1.867E+08 | Integral (total chemiluminescence counts, total ROS production) ([3]; fMLP 10^−6 M, DHQ 100 μM (line not labelled, concentration inferred)): 4.329E+07 | Peak max [3, 7]: 3.731E+07 cpm | Slope max [3, 7]: 2.492E+07 cpm | T. Slope max [3, 7]: 0.22 | T. half (fall) [3, 7]: 3.78 | T. max (peak) [3, 7]: 1.33 | Peak max [3, 8]: 1.770E+07 cpm | Slope max [3, 8]: 1.206E+07 cpm | T. Slope max [3, 8]: 0.22 | T. half (fall) [3, 8]: 3.55 | T. max (peak) [3, 8]: 1.33 | Peak max [3, 9]: 2.533E+06 cpm | Slope max [3, 9]: 1.464E+06 cpm | T. Slope max [3, 9]: 2.00 | T. half (rise) [3, 9]: 1.55 | T. max (peak) [3, 9]: 6.00 | cell viability of NIH-3T3 cells (extent of MTT reduced) [4]: reduced | inhibition at 1 µM ([5]; Neutrophil, neutrophils activated by PMA, DHQ 1 μM): ~80% | Integral (total chemiluminescence counts, total ROS production) ([5]; DHQ 1 μM (line not labelled, concentration inferred)): 4.509E+08 | Integral (total chemiluminescence counts, total ROS production) ([5]; DHQ 10 μM (line not labelled, concentration inferred)): 2.0172E+08 | Integral (total chemiluminescence counts, total ROS production) ([5]; DHQ 100 μM (line not labelled, concentration inferred)): 3.576E+07 | Peak max ([5]; DHQ 1 μM (inferred)): 2.430E+07 cpm | Slope max ([5]; DHQ 1 μM (inferred)): 9.790E+06 cpm | T. Slope max ([5]; DHQ 1 μM (inferred)): 1.78 | T. half (rise) ([5]; DHQ 1 μM (inferred)): 2.44 | T. max (peak) ([5]; DHQ 1 μM (inferred)): 11.77 | Peak max ([5]; DHQ 10 μM (inferred)): 1.134E+07 cpm | Slope max ([5]; DHQ 10 μM (inferred)): 4.380E+06 cpm | T. Slope max ([5]; DHQ 10 μM (inferred)): 1.55 | T. half (rise) ([5]; DHQ 10 μM (inferred)): 2.22 | T. max (peak) ([5]; DHQ 10 μM (inferred)): 9.55 | Peak max ([5]; DHQ 100 μM (inferred)): 2.260E+06 cpm | Slope max ([5]; DHQ 100 μM (inferred)): 1.033E+06 cpm | T. Slope max ([5]; DHQ 100 μM (inferred)): 4.66 | T. half (rise) ([5]; DHQ 100 μM (inferred)): 4.89 | T. max (peak) ([5]; DHQ 100 μM (inferred)): 11.55 | oxygen consumption of polymorphonuclear neutrophils [6]: strongly inhibits
